Laboratory results from article PMC12527173, “Cytotoxic, anti-inflammatory, antioxidant, and anti-glyoxalase-I evaluation of chelating substances: In silico and in vitro study” (PLOS One, 2025).
Read-outs that look alike come from different tables or passages of the source. One block for each compound: values may come before it.

Legend:
[1] = target: T1, human recombinant Glo-I enzyme (rhGlo-I) (Homo sapiens, UniProt Q04760); assay: Glyoxalase-I (Glo-I) enzyme inhibition assay; type: biochemical; details: for activity against Glo-I (in words): in vitro, compounds classed as inactive
T1 construct: N-terminal Met and 6-His tag (N); purchased R&D Systems; host or cells: E. coli
T1 sequence (Q04760 2-184 limits assumed): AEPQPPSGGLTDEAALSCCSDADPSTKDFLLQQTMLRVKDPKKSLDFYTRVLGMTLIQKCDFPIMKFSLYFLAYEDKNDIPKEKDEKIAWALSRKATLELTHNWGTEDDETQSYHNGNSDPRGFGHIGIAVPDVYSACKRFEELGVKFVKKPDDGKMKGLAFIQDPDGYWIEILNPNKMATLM
Experimental: Solvents and chemicals were procured from Sigma-Aldrich Co. and Acros (ThermoFisher Scientific, New Jersey, USA). […] The enzyme was obtained from R&D Systems® Corporation in the USA. Synthetic compounds were tested for their inhibitory effects on the enzyme using a 10 mM DMSO stock concentration in triplicates. The manufacturer’s protocol from R & D Systems, Inc. in Minneapolis, MN, USA was followed for the in vitro experiments. The reconstituted Glo-I enzyme (0.5 mg/mL) was thawed after being stored at −70°C in sterile deionized water. […] The monitoring was done at a wavelength of 240 nm for 200 seconds at 37°C. The substrate mixture was freshly concocted with a concentration of 100 mM glutathione and 100 mM methylglyoxal (MG) in assay buffer containing 0.5 M sodium phosphate dibasic/monobasic. It was then left undisturbed at room temperature for 15 minutes […]. The selected compounds for investigation are subsequently produced in testing concentration ranges using a 0.1 M solution of sodium phosphate dibasic/monobasic with a pH range of 7–7.2. The blank contained an assay buffer with MG substrate. The test compounds were combined with human recombinant Glo-I (50 µM) in a 96-well plate to determine their kinetic behavior.

[2] = system: HeLa uterine cervix adenocarcinoma cell line; assay: SRB cytotoxicity assay, HeLa; type: cell-based; details: Homo sapiens, 72 h incubation, n = 12, read-out: Cytotoxicity (as of %Control) IC50 value Hela cervix malignancy
Experimental: (§1) The cancer cell lines were cultured in DMEM supplemented with 10% FBS (Bio Whittaker, Verviers, Belgium), HEPES Buffer (10 mM), gentamicin (50 µg/mL), L-glutamine (100 μg/mL), streptomycin ([…]), penicillin (100 µg/mL), and 4-(2-hydroxyethyl)-1-piperazineethanesulfonic acid (HEPES) Buffer (Sigma, St. Luis, MO, USA). The Sulforhodamine B used was obtained from Santa Cruz Biotechnology, Inc. in Texas, USA. […] Periodontal ligament fibroblasts (PDL) were utilized to assess specific cytotoxicity. Cancer cell lines that have survived offer several benefits. They provide a consistent and uninterrupted source of cells, so bypassing any ethical concerns related to the use of human tissue. Additionally, they are cost-effective. The cytotoxicity levels were assessed using the Sulforhodamine B (SRB) colorimetric assay, provided by Santa Cruz Biotechnology, Inc. in Texas, USA. The Spectro Scan 80D UV-VIS spectrophotometer, manufactured by Sedico Ltd. in Nicosia, Cyprus, was employed for this cytotoxicity screening. The cells were co-incubated with substances or a reference agent at various doses ranging from 5 to 200 μg/mL. […] The reduction in cell viability was analyzed by plotting Dose-response curves and expressing the data as a percentage of the control optical density. The IC50 values were obtained using regression analysis.

[3] = system: Breast cancer cell line MCF7; assay: SRB cytotoxicity assay, MCF7; type: cell-based; details: Homo sapiens, 72 h incubation, n = 12, read-out: Cytotoxicity (as of %Control) IC50 value MCF7 mammary malignancy
Experimental: as §1

[4] = SRB cytotoxicity assay, normal PDL fibroblasts; type: cell-based; details: normal periodontal ligament (PDL) fibroblasts, 72 h incubation, 0.1–200 µM range, read-out: Cytotoxicity (as of %Control) IC50 value PDL fibroblasts
Experimental: as §1

[5] = system: T47D breast cancer cell line; assay: SRB cytotoxicity assay, T47D; type: cell-based; details: Homo sapiens, 72 h incubation, n = 12, read-out: Cytotoxicity (as of %Control) IC50 value T47D mammary malignancy
Experimental: as §1

[6] = system: HT-29 colorectal cancer cell line; assay: SRB cytotoxicity assay, HT29; type: cell-based; details: Homo sapiens, 72 h incubation, n = 12, read-out: Cytotoxicity (as of %Control) IC50 value HT29
Experimental: as §1

[7] = system: SW620 colorectal cancer cell line; assay: SRB cytotoxicity assay, SW620; type: cell-based; details: Homo sapiens, SW-620, 72 h incubation, n = 12, read-out: Cytotoxicity (as of %Control) IC50 value SW620
Experimental: as §1

[8] = system: Human PC3 prostate cancer cell line; assay: SRB cytotoxicity assay, PC3; type: cell-based; details: 72 h incubation, n = 12, read-out: Cytotoxicity (as of %Control) IC50 value PC3 prostate malignancy
Experimental: as §1

[9] = system: CACO2 colorectal cancer cell line; assay: SRB cytotoxicity assay, CACO2; type: cell-based; details: Homo sapiens, Caco-2, 72 h incubation, n = 12, read-out: Cytotoxicity (as of %Control) IC50 value CACO2
Experimental: as §1

[10] = system: HCT116 colorectal cancer cell line; assay: SRB cytotoxicity assay, HCT116; type: cell-based; details: Homo sapiens, HCT-116, 72 h incubation, n = 12, read-out: Cytotoxicity (as of %Control) IC50 value HCT116
Experimental: as §1

[11] = system: SW480 colorectal cancer cell line; assay: SRB cytotoxicity assay, SW480; type: cell-based; details: Homo sapiens, 72 h incubation, n = 12, read-out: Cytotoxicity (as of %Control) IC50 value SW480
Experimental: as §1

[12] = system: A375 human skin cancer cell line; assay: SRB cytotoxicity assay, A375; type: cell-based; details: A-375, 72 h incubation, n = 12, read-out: Cytotoxicity (as of %Control) IC50 value A375 skin melanoma
Experimental: as §1

[13] = system: A549 lung cancer cell line; assay: SRB cytotoxicity assay, A549; type: cell-based; details: Homo sapiens, 72 h incubation, n = 12, read-out: Cytotoxicity (as of %Control) IC50 value A549 lung malignancy
Experimental: as §1

[14] = system: PANC1 pancreatic cell line; assay: SRB cytotoxicity assay, PANC1; type: cell-based; details: Homo sapiens, PANC-1, 72 h incubation, n = 12, read-out: Cytotoxicity (as of %Control) IC50 value PANC1
Experimental: as §1

[15] = system: LPS-primed RAW 264.7 murine macrophages (nitrite / iNOS); assay: Anti-inflammatory (nitrite) determination in LPS-primed macrophages; type: cell-based; details: Mus musculus, RAW264.7; LPS-primed RAW 264.7; nitrite by Griess; 24 h; n = 12; read-out: iNOS- IC50 value
Experimental: The RAW 264.7 mouse macrophage cell line (ATCC® TIB-71) was cultivated in high glucose DMEM with 10% foetal bovine serum (FBS), 100 U/mL penicillin, 100 μg/mL streptomycin, and 100 μg/mL L-glutamate. The cells were incubated at 37°C in a humidified environment with 95% air and 5% CO2. Confluent macrophages (2 x 10^5/well) were cultured with lipopolysaccharide (LPS; 20 μg/mL; Sigma, St. Luis, MO, USA) and indomethacin (25–200 μg/mL) as the positive control, along with various concentrations (5–200 μg/mL) of treatment compounds. The cells were incubated for 24 hours. 100 μL of Griess reagent were combined with 100 μL portions of cell culture medium and left to incubate at room temperature for 10 minutes. The absorbance at a wavelength of 550 nm was measured using a microplate reader, namely the Spectro Scan 80D UV-VIS spectrophotometer manufactured by Sedico Ltd. in Nicosia, Cyprus. The nitrite concentration was assessed by comparing it to a standard curve of sodium nitrite. A cytotoxicity protocol using SRB was conducted to assess the impact of the test substances under study on RAW 264.7 viability.

[16] = read-out: Trial one (%inhibtion)
[17] = read-out: Trial three (%inhibtion)
[18] = read-out: Trial two (%inhibtion)

activity against Glo-I (in words) [1]: inactive
SMILES: O=C(/C=C/c1ccc(O)c(O)c1)O[C@@H]1[C@H](O)C[C@@](O)(C(=O)O)C[C@H]1OC(=O)/C=C/c1ccc(O)c(O)c1 [3,4-diaffeoylquinic acid]

activity against Glo-I (in words) [1]: inactive
SMILES: Cc1c(O)c(=O)ccn1C [3-Hydroxy-1,2-dimethyl-4(1h)-pyridone]

activity against Glo-I (in words) [1]: inactive
SMILES: Oc1cc(O)c2c(c1)O[C@H](c1ccc(O)c(O)c1)[C@@H](O)C2 [(+)Catechin]

activity against Glo-I (in words) [1]: inactive
SMILES: Oc1cc(O)c2c(c1)O[C@H](c1ccc(O)c(O)c1)[C@H](O)C2 [(-)Epicatechin]

activity against Glo-I (in words) [1]: ineffective
SMILES: NC(CO)C(=O)NNCc1ccc(O)c(O)c1O (stereo not shown) [Benserazide, reference compound]

inhibition at 3.125 µM [1, 16]: 15.4%
inhibition at 3.125 µM [1, 17]: 6.7%
inhibition at 3.125 µM [1, 18]: 7.9%
inhibition at 6.25 µM [1, 16]: 14.4%
inhibition at 6.25 µM [1, 17]: 9.01%
inhibition at 6.25 µM [1, 18]: 9.06%
inhibition at 12.5 µM [1, 16]: 25.3%
inhibition at 12.5 µM [1, 17]: 20.9%
inhibition at 12.5 µM [1, 18]: 12%
inhibition at 25 µM [1, 16]: 35.3%
inhibition at 25 µM [1, 17]: 29.6%
inhibition at 25 µM [1, 18]: 27.5%
inhibition at 50 µM [1, 16]: 55.6%
inhibition at 50 µM [1, 17]: 56%
inhibition at 50 µM [1, 18]: 53.5%
Maximum (descriptive statistics of enzyme inhibition) ([1]; highest mean inhibition over the tested concentrations, in % (unit assumed)): 55.00
IC50 ([1]; human recombinant Glo-I, triplicates, read-out: IC50 µM ± SD): 44.3 ± 18.6 µM
Minimum (descriptive statistics of enzyme inhibition) ([1]; lowest mean inhibition over the tested concentrations, in % (unit assumed)): 10.00
SMILES: O=C(/C=C/c1ccc(O)c(O)c1)O[C@H]1[C@H](O)[C@@H](O)[C@H](OCCc2ccc(O)c(O)c2)O[C@@H]1CO [Calceolarioside A]
IC50 [2]: 208000 ± 34800 nM
IC50 [3]: 899000 ± 179000 nM
IC50 at 72 h [4]: > 200000 nM
IC50 [5]: 45600 ± 3460 nM

SMILES: [O-][Cl+2]([O-])O [Chloric acid]
activity against Glo-I (in words) [1]: inactive

activity against Glo-I (in words) [1]: inactive
SMILES: CC(=NO)C(C)=NO [Dimethylglyoxime]

SMILES: COc1cccc2c1C(=O)c1c(O)c3c(c(O)c1C2=O)C[C@@](O)(C(=O)CO)C[C@@H]3O[C@H]1C[C@H](N)[C@H](O)[C@H](C)O1 [Doxorubicin, reference compound]
IC50 [6]: 6 nM
IC50 [7]: 650 ± 30 nM
IC50 [8]: 130 ± 10 nM
IC50 [2]: 5560 ± 80 nM
IC50 [9]: 920 ± 30 nM
IC50 [10]: 920 ± 30 nM
IC50 [11]: 10 nM
IC50 [12]: 280 ± 140 nM
IC50 [3]: 4810 ± 210 nM
IC50 [13]: 280 nM
IC50 at 72 h [4]: > 200000 nM
IC50 [5]: 20 nM
IC50 [14]: 7170 ± 1070 nM

activity against Glo-I (in words) [1]: loss of activity
SMILES: CCN(CC)C(=O)/C(C#N)=C/c1cc(O)c(O)c([N+](=O)[O-])c1 [Entacapone, reference compound]

SMILES: Oc1cc(O)c2c(c1)O[C@H](c1cc(O)c(O)c(O)c1)[C@@H](O)C2 [Gallocatechin]
activity against Glo-I (in words) [1]: inactive

activity against Glo-I (in words) [1]: ineffective
SMILES: Oc1ccc(CC2NCCc3cc(O)c(O)cc32)cc1 (stereo not shown) [Higenamine]

IC50 [15]: 20 nM
SMILES: COc1ccc2c(c1)c(CC(=O)O)c(C)n2C(=O)c1ccc(Cl)cc1 [Indomethacin]

SMILES: O=C(CCCCCCC(=O)Nc1ccccc1)NO [SAHA, reference compound]
activity against Glo-I (in words) [1]: do not demonstrate efficacy against Glo-I

activity against Glo-I (in words) [1]: inactive
SMILES: COc1ccc(C[C@@H](C)[C@@H](C)Cc2ccc(OC)c(OC)c2)cc1OC [Terameprocol]

activity against Glo-I (in words) [1]: inactive
SMILES: O=c1cccccc1O [Tropolon]

SMILES: CC(c1cc2ccccc2s1)N(O)C(N)=O (stereo not shown) [Zileuton, reference compound]
activity against Glo-I (in words) [1]: do not demonstrate efficacy against Glo-I

activity against Glo-I (in words) [1]: did not exhibit any action against Glo-I
SMILES: CC(=O)Nc1nnc(S(N)(=O)=O)s1 [acetazolamide, reference compound]

activity against Glo-I (in words) [1]: inactive
SMILES: O=C(/C=C/c1ccc(O)c(O)c1)O[C@@H]1C[C@@](OC(=O)/C=C/c2ccc(O)c(O)c2)(C(=O)O)C[C@@H](O)[C@@H]1O [cynarine]
